In patent US10954215B2, “Compounds as modulators of ROR gamma” (Boehringer Ingelheim International GmbH, priority 2016, dated 2021) one finds IC50 data, which are given here for 1 compound.

pIC50: −log10 of the molar value.

This experiment has as its target T1, RORγ (Homo sapiens, UniProt P51449).
T1 construct: expressed in transfected cells; host or cells: HEK 293 cells, transiently transfected
T1 sequence (P51449 269-508 limits assumed): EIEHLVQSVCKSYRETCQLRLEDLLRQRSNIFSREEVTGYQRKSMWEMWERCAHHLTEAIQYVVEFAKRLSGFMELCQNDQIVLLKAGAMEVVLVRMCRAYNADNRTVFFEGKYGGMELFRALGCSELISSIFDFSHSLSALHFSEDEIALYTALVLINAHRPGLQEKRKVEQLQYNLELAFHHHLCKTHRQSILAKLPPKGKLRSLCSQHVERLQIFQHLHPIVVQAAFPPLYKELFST
Kind of experiment: Reporter Gene Assay (RGA): inhibition of RORγ transactivation of a luciferase reporter in transiently transfected HEK 293 cells. The format is cell-based. Particulars: HEK 293 cells cotransfected with pGL4.3 luc2P/GAL4UAS and pBIND Gal4DBD hRORC LBD; 20-24 h incubation; luciferase luminescence. How it is done: Reporter Gene Assay (RGA)
A nuclear receptor transactivation assay is performed to quantitate the ability of test compounds to inhibit RORγ transactivation of a luciferase reporter. A similar assay is described in: Khan et al., Bioorganic & Medicinal Chemistry Letters 23 (2013), 532-536. The system uses transiently transfected HEK 293 cells cotransfected with two plasmids (pGL4.3, luc2P/GAL4UAS/Hygro, and pBIND, Gal4DBD hRORC LBD1-3). The positive control is co-transiently transfected with both plasmids, and the negative control contains the pGL4.3 promoter sequence. Assays are assembled in 384 well plates where transiently transfected cells and test compound at varying concentrations are incubated for 20-24 h. The next day, assays plates are taken out and equilibrated at RT for 20-30 minutes. Bright-Glo™ Luciferase Assay System is used to detect Luciferase production. After addition of Bright GLO detection reagent, the plates are incubated at RT for 20 minutes. The plates are read on an Envision plate reader to measure luminescence signal. The RLU signal is converted to POC relative to control and blank wells.
Compound dilution buffer:
Bright Glo Luciferase Assay System: Promega #E2620
Thaw lysis buffer provided in kit, add 100 mL lysis buffer to substrate powder.

Take `CCS(=O)(=O)c1ccc(CNC(=O)N2CC(c3cccc(C4CC4)n3)C(c3cn(C(C)C)nc3C(C)(C)C)C2)cc1` (stereo not shown) [Example 57]: the pIC50 (in general, the IC50 on a negative log10 scale, so that one unit is a factor of ten) is 5.98.
